Data on 12 compounds can be found in patent US20250179103A1, “6-OXODECAHYDROPYRROLO[1,2-A][1,5]DIAZOCINE AND 6-OXODECAHYDRO-4H-PYRROLO[2,1-D][1,5]THIAZOCINE DERIVATIVES AS STAT3 AND STAT6 MODULATORS FOR THE TREATMENT OF CANCER AND INFLAMMATORY CONDITIONS” (Recludix Pharma, Inc., priority 2022, published 2025).

The target of test [1] is T1, Recombinant STAT3 protein (STAT3(G127-I722)) (Homo sapiens, UniProt P40763).
T1 construct: Recombinant STAT3 protein (STAT3(G127-I722))
As to the kind of experiment: STAT3 Fluorescence Polarization (FP) Assay. Type of test: binding. Conditions: STAT3(G127-I722) 25 nM, probe 5-FAM-GpYLPQTV-NH2 2 nM, 45-minute incubation. In a few lines: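 STAT3(G127-I722), 25 nM, was mixed with 2 nM 5-FAM-GpYLPQTV-NH2 probe in HEPES pH 7.4 buffer with 1% DMSO and serially diluted compound. FP (mP) was read after 45 min at room temperature. IC50 came from nonlinear regression.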

Test [2] has as its target T2, Recombinant STAT6 protein (STAT6(W123-T658)) (Homo sapiens, UniProt P42226).
T2 construct: Recombinant STAT6 protein (STAT6(W123-T658))
T2 sequence (P42226 123-658): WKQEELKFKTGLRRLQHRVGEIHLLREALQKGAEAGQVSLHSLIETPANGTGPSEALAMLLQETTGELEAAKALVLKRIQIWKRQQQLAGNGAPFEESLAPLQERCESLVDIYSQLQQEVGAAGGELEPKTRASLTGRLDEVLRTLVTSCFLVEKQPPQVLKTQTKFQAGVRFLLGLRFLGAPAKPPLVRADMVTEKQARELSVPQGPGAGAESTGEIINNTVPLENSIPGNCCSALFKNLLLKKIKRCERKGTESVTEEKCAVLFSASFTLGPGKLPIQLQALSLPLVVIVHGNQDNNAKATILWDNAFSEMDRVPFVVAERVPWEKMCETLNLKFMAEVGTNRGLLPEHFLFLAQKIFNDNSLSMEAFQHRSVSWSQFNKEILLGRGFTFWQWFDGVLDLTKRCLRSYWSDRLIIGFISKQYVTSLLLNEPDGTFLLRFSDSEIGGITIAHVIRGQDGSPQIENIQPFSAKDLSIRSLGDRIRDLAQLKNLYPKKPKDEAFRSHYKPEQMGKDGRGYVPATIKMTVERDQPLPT
As to the kind of experiment: STAT6 Fluorescence Polarization (FP) Assay. Type of test: binding. Conditions: STAT6(W123-T658) 250 nM, probe 5-FAM-ApYKPFQDLI-NH2 2 nM, 45-minute incubation. In short, it runs like this: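 Displacement of a fluorescent phosphotyrosine peptide (5-FAM-ApYKPFQDLI-NH2, 2 nM) from STAT6(W123-T658) (250 nM), 1% DMSO, pH 7.4 HEPES buffer. After 45 min at room temperature, polarization (mP) was plotted versus log compound concentration and fitted by nonlinear regression to give IC50.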
On the technique in general: Polarisation of emitted light reports the rotation of a fluorescent probe.

SMILES strings stand for the structures.

T1 sequence (P40763 127-722): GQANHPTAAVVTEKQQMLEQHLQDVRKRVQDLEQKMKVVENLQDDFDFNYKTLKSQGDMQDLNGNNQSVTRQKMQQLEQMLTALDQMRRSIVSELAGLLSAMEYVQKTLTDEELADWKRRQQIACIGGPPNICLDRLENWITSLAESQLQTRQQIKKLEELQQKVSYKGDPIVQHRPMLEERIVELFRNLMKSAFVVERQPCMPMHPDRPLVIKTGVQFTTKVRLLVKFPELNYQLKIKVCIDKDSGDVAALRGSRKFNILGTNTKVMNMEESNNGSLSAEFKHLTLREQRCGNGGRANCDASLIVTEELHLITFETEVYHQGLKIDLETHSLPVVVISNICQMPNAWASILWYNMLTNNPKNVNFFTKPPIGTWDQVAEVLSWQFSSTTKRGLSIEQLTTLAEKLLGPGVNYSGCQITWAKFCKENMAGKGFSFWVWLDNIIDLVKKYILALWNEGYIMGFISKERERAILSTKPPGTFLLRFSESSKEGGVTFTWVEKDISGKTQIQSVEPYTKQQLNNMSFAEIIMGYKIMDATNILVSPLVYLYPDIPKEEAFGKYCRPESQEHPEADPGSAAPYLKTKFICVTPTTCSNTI

Broadly, the IC50 is the point on the concentration scale where inhibition reaches its midpoint. On to `CCN1CC[C@H]2CC[C@@H](C(=O)N3C[C@@H](C#N)[C@H](c4cc[nH]c(=O)c4)C3)N2C(=O)[C@@H](NC(=O)c2ccc3ccc(C(F)(F)P(=O)(O)O)cc3c2)C1` (relative stereo) [Compound 240, ((7-(((5S,8S,10aR)-8-((rel-trans)-3-cyano-4-(2-oxo-1,2-dihydropyridin-4-yl)pyrrolidine-1-carbonyl)-3-ethyl-6-oxodecahydropyrrolo[1,2-a][1,5]diazocin-5-yl)carbamoyl)naphthalen-2-yl)difluoromethyl)phosphonic acid], for which the IC50 in test [1] fell in the range of 1000 to 10000 nM; in test [2] it was 300 to 3000 nM.
For `N#C[C@H]1CN(C(=O)[C@@H]2CC[C@@H]3CCN(CC(F)F)C[C@H](NC(=O)c4ccc5ccc(C(F)(F)P(=O)(O)O)cc5c4)C(=O)N32)CC[C@@H]1c1ccccc1` (relative stereo) [Compound 241, ((7-(((5S,8S,10aR)-8-((rel-trans)-3-cyano-4-phenylpiperidine-1-carbonyl)-3-(2,2-difluoroethyl)-6-oxodecahydropyrrolo[1,2-a][1,5]diazocin-5-yl)carbamoyl)naphthalen-2-yl)difluoromethyl)phosphonic acid], the figures for the IC50 in test [1] and in test [2] were 1000 to 10000 nM and 300 to 3000 nM, respectively.
Take `O=C(N[C@H]1CN(CC(F)F)CC[C@H]2CC[C@@H](C(=O)N3C[C@H](c4ccccc4)[C@@H](C(F)F)C3)N2C1=O)c1cc2cc(C(F)(F)P(=O)(O)O)ccc2s1` (relative stereo) [Compound 242, ((2-(((5S,8S,10aR)-3-(2,2-difluoroethyl)-8-((rel-trans)-3-(difluoromethyl)-4-phenylpyrrolidine-1-carbonyl)-6-oxodecahydropyrrolo[1,2-a][1,5]diazocin-5-yl)carbamoyl)benzo[b]thiophen-5-yl)difluoromethyl)phosphonic acid]: the results for the IC50 in test [1] and in test [2] were 100 to 1000 nM and at most 300 nM, respectively.
Regarding `N#C[C@H]1CN(C(=O)[C@@H]2CC[C@@H]3CCN(CC(F)F)C[C@H](NC(=O)c4ccc5ccc(C(F)(F)P(=O)(O)O)cc5c4)C(=O)N32)C[C@@H]1c1cc(F)cc(F)c1` (relative stereo) [Compound 246, ((7-(((5S,8S,10aR)-8-((rel-trans)-3-cyano-4-(3,5-difluorophenyl)pyrrolidine-1-carbonyl)-3-(2,2-difluoroethyl)-6-oxodecahydropyrrolo[1,2-a][1,5]diazocin-5-yl)carbamoyl)naphthalen-2-yl)difluoromethyl)phosphonic acid], the IC50 lay within 1000 to 10000 nM in test [1] and 300 to 3000 nM in test [2].
For `COC(=O)N1CC[C@H]2CC[C@@H](C(=O)N3C[C@H](c4ccccc4)[C@@H](C#N)C3)N2C(=O)[C@@H](NC(=O)c2cc3cc(C(F)(F)P(=O)(O)O)ccc3s2)C1` (relative stereo) [Compound 250, ((2-(((5S,8S,10aR)-8-((rel-trans)-3-cyano-4-phenylpyrrolidine-1-carbonyl)-3-(methoxycarbonyl)-6-oxodecahydropyrrolo[1,2-a][1,5]diazocin-5-yl)carbamoyl)benzo[b]thiophen-5-yl)difluoromethyl)phosphonic acid], the IC50 is 100 to 1000 nM in test [1] and at most 300 nM in test [2].
In the same order, the values of `CC(C)CN1CC[C@H]2CC[C@@H](C(=O)N3C[C@@H](C#N)[C@H](c4ccccc4)C3)N2C(=O)[C@@H](NC(=O)c2cc3cc(C(F)(F)P(=O)(O)O)ccc3s2)C1` (relative stereo) [Compound 279, ((2-(((5S,8S,10aR)-8-((rel-trans)-3-cyano-4-phenylpyrrolidine-1-carbonyl)-3-isobutyl-6-oxodecahydropyrrolo[1,2-a][1,5]diazocin-5-yl)carbamoyl)benzo[b]thiophen-5-yl)difluoromethyl)phosphonic acid] are 100 to 1000 nM and at most 300 nM.
For `N#CC1CN(C(=O)C2CCC3CCS(=N)(=O)CC(NC(=O)c4cc5cc(C(F)(F)P(=O)(O)O)ccc5s4)C(=O)N32)CC1c1ccccc1` (single isomer, unassigned) [Compound 7], the half-inhibitory concentration (IC50) in test [1] was 1000 to 10000 nM; in test [2], 300 to 3000 nM.
As to `N#C[C@@H]1CN(C(=O)[C@@H]2CC[C@@H]3CCS(=O)(=O)C[C@H](NC(=O)c4cc5cc(C(F)(F)P(=O)(O)O)ccc5s4)C(=O)N32)C[C@H]1c1ccccc1` (single isomer, unassigned) [Compound 8], the IC50 was 100 to 1000 nM in test [1] and at most 300 nM in test [2].
Turning to `CC(=O)N1CC[C@H]2CC[C@@H](C(=O)N3C[C@@H](C#N)[C@]4(C3)C(=O)Nc3ccccc34)N2C(=O)[C@@H](NC(=O)c2cc3cc(C(F)(F)P(=O)(O)O)ccc3s2)C1` (single isomer, unassigned) [Compound 12, ((2-(((5S,8S,10aR)-3-acetyl-8-((3S,4′S or 3R,4′R)-4′-cyano-2-oxospiro[indoline-3,3′-pyrrolidine]-1′-carbonyl)-6-oxodecahydropyrrolo[1,2-a][1,5]diazocin-5-yl)carbamoyl)benzo[b]thiophen-5-yl)difluoromethyl)phosphonic acid], the figures for the IC50 in test [1] and in test [2] were at most 100 nM and at most 300 nM, respectively.
With `CC(=O)N1CC[C@H]2CC[C@@H](C(=O)N3C[C@H](C#N)[C@@]4(C3)C(=O)Nc3ccccc34)N2C(=O)[C@@H](NC(=O)c2cc3cc(C(F)(F)P(=O)(O)O)ccc3s2)C1` (single isomer, unassigned) [Compound 13, ((2-(((5S,8S,10aR)-3-acetyl-8-((3R,4′R or 3S,4′S)-4′-cyano-2-oxospiro[indoline-3,3′-pyrrolidine]-1′-carbonyl)-6-oxodecahydropyrrolo[1,2-a][1,5]diazocin-5-yl)carbamoyl)benzo[b]thiophen-5-yl)difluoromethyl)phosphonic acid], the IC50 in test [1] fell in the range of 1000 to 10000 nM; in test [2], 300 to 3000 nM.
`CC(=O)N1CC[C@H]2CC[C@@H](C(=O)N3C[C@H](c4cc[nH]c(=O)c4)[C@@H](C#N)C3)N2C(=O)[C@@H](NC(=O)c2ccc3ccc(C(F)(F)P(=O)(O)O)cc3c2)C1` (single isomer, unassigned) [Compound 38, ((7-(((5S,8S,10aR)-3-acetyl-8-((3R,4S or 3S,4R)-3-cyano-4-(2-oxo-1,2-dihydropyridin-4-yl)pyrrolidine-1-carbonyl)-6-oxodecahydropyrrolo[1,2-a][1,5]diazocin-5-yl)carbamoyl)naphthalen-2-yl)difluoromethyl)phosphonic acid]: the IC50 in test [1] is 1000 to 10000 nM; in test [2], at most 300 nM.
With `CC(=O)N1CC[C@H]2CC[C@@H](C(=O)N3C[C@@H](C#N)[C@H](c4cc[nH]c(=O)c4)C3)N2C(=O)[C@@H](NC(=O)c2ccc3ccc(C(F)(F)P(=O)(O)O)cc3c2)C1` (single isomer, unassigned) [Compound 39, ((7-(((5S,8S,10aR)-3-acetyl-8-((3S,4R or 3R,4S)-3-cyano-4-(2-oxo-1,2-dihydropyridin-4-yl)pyrrolidine-1-carbonyl)-6-oxodecahydropyrrolo[1,2-a][1,5]diazocin-5-yl)carbamoyl)naphthalen-2-yl)difluoromethyl)phosphonic acid], the figures for the IC50 in test [1] and in test [2] were 1000 to 10000 nM and at most 300 nM, respectively.
